Data taken from PubChem BioAssay (NCI).
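Assay format: 96-well plates, 48-hour exposure. TGI: total growth inhibition.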

Assays:
Experiment in all cases: growth of human tumour cells (NCI), 48 h
UACC-257 melanoma = system: UACC-257 melanoma
HOP-62 NSCLC = system: HOP-62 NSCLC
NCI/ADR-RES ovarian = system: NCI/ADR-RES ovarian
TK-10 renal = system: TK-10 renal
U251 CNS = system: U251 CNS
MOLT-4 leukemia = system: MOLT-4 leukemia
SW-620 colon = system: SW-620 colon
OVCAR-4 ovarian = system: OVCAR-4 ovarian
786-0 renal = system: 786-0 renal
NCI-H522 lung = system: NCI-H522 lung
HOP-92 NSCLC = system: HOP-92 NSCLC
SK-MEL-5 melanoma = system: SK-MEL-5 melanoma
COLO 205 colon = system: COLO 205 colon
SNB-19 CNS = system: SNB-19 CNS
BT-549 breast = system: BT-549 breast
UO-31 renal = system: UO-31 renal
IGROV1 ovarian = system: IGROV1 ovarian
EKVX NSCLC = system: EKVX NSCLC
DU-145 prostate = system: DU-145 prostate
SF-539 CNS = system: SF-539 CNS

Compound	TGI (UACC-257 melanoma)	TGI (HOP-62 NSCLC)	TGI (NCI/ADR-RES ovarian)	TGI (TK-10 renal)	TGI (U251 CNS)	TGI (MOLT-4 leukemia)	TGI (SW-620 colon)	TGI (OVCAR-4 ovarian)	TGI (786-0 renal)	TGI (NCI-H522 lung)	TGI (HOP-92 NSCLC)	TGI (SK-MEL-5 melanoma)	TGI (COLO 205 colon)	TGI (SNB-19 CNS)	TGI (BT-549 breast)	TGI (UO-31 renal)	TGI (IGROV1 ovarian)	TGI (EKVX NSCLC)	TGI (DU-145 prostate)	TGI (SF-539 CNS)
O=C(O)CCNC(=O)c1cc(N(CCBr)CCBr)c([N+](=O)[O-])cc1[N+](=O)[O-]	> 100 µM	> 100 µM	> 100 µM	> 100 µM	> 100 µM	> 100 µM	> 100 µM	> 100 µM	> 100 µM	> 100 µM	> 100 µM	> 100 µM	> 100 µM	> 100 µM	> 100 µM	> 100 µM	> 100 µM	> 100 µM	–	–
COC(=O)C1(C(=O)OC)N=C(C)OC1c1ccccn1 (stereo not given)	> 100 µM	> 100 µM	> 100 µM	> 100 µM	> 100 µM	> 100 µM	> 100 µM	> 100 µM	> 100 µM	–	> 100 µM	> 100 µM	> 100 µM	> 100 µM	> 100 µM	> 100 µM	> 100 µM	> 100 µM	> 100 µM	–
COc1cc(C(=O)C2C(=O)c3ccccc3C2C2(O)c3ccccc3CC2C(O)c2cc(OC)c(OC)c(OC)c2)cc(OC)c1OC (stereo not given)	> 100 µM	> 100 µM	> 100 µM	> 100 µM	> 100 µM	> 100 µM	> 100 µM	> 100 µM	> 100 µM	–	> 100 µM	> 100 µM	> 100 µM	> 100 µM	> 100 µM	> 100 µM	> 100 µM	> 100 µM	> 100 µM	> 100 µM
Cc1ccc(Nc2[nH]c(=O)[nH]c(=O)c2C)cc1Cl	> 100 µM	> 100 µM	> 100 µM	> 100 µM	> 100 µM	–	> 100 µM	> 100 µM	> 100 µM	> 100 µM	> 100 µM	> 100 µM	> 100 µM	> 100 µM	> 100 µM	> 100 µM	> 100 µM	> 100 µM	–	> 100 µM
Cc1[nH]n(C(=N)N)c(=O)c1CCO	> 100 µM	> 100 µM	8.93 µM	> 100 µM	> 100 µM	–	> 100 µM	> 100 µM	3.08 µM	> 100 µM	> 100 µM	> 100 µM	> 100 µM	> 100 µM	> 100 µM	> 100 µM	> 100 µM	–	> 100 µM	> 100 µM
COc1cccc(CCNc2c(C#N)c3nc4ccccc4n3c3ccccc23)c1	> 100 µM	> 100 µM	–	> 100 µM	> 100 µM	> 100 µM	> 100 µM	> 100 µM	> 75.9 µM	0.397 µM	> 100 µM	0.872 µM	> 47.4 µM	> 86 µM	> 100 µM	> 100 µM	> 100 µM	> 100 µM	> 41.1 µM	> 100 µM
S=C(N/N=C/c1ccccn1)Nc1ccc(Cl)cc1	> 100 µM	17.4 µM	–	> 96 µM	8.3 µM	> 100 µM	> 100 µM	> 100 µM	16.1 µM	0.18 µM	> 57.6 µM	15.5 µM	> 100 µM	> 39 µM	> 68.1 µM	1.09 µM	25.6 µM	> 100 µM	> 100 µM	14.4 µM
CCC/C(Cl)=N\OC(=O)Nc1cccc(C(F)(F)F)c1	31.6 µM	> 100 µM	> 59.4 µM	28.8 µM	34.4 µM	13.6 µM	8.66 µM	38.5 µM	29.5 µM	3.42 µM	–	28.9 µM	8.51 µM	> 100 µM	24.7 µM	33.9 µM	32.4 µM	31.4 µM	17.8 µM	35.1 µM
CC1(C)OCC(C2OC(OC(=O)c3ccc([N+](=O)[O-])cc3)C3OC(C)(C)OC23)O1 (stereo not given)	> 100 µM	> 100 µM	> 100 µM	> 100 µM	> 100 µM	> 100 µM	> 100 µM	> 100 µM	> 100 µM	> 100 µM	–	> 100 µM	> 100 µM	> 100 µM	> 100 µM	> 100 µM	> 100 µM	> 100 µM	> 100 µM	> 100 µM
Cc1nc2c(cc1C(=O)N/N=C/c1ccc([N+](=O)[O-])cc1)c(=O)n(C)c(=O)n2C	> 100 µM	35.8 µM	> 100 µM	> 100 µM	57 µM	> 100 µM	> 100 µM	> 100 µM	> 100 µM	–	–	> 100 µM	> 100 µM	56.7 µM	> 100 µM	> 100 µM	> 100 µM	> 100 µM	> 100 µM	–
CCCCc1ccc(-n2sc3ncc([N+](=O)[O-])cc3c2=O)cc1	50.9 µM	36.7 µM	34.4 µM	61.9 µM	29.1 µM	53.7 µM	35.9 µM	35.2 µM	28.2 µM	9.36 µM	–	27.7 µM	32.3 µM	48.6 µM	33.9 µM	35.5 µM	28.1 µM	29.8 µM	57.9 µM	39.7 µM
O=C1C(Cl)C2(CC(/C=C/c3ccccc3O)=NN2c2cccc(S(=O)(=O)O)c2)N1c1nc2ccccc2s1 (stereo not given)	42 µM	–	> 100 µM	26 µM	46.9 µM	47.7 µM	42.9 µM	27.4 µM	30 µM	14.6 µM	37 µM	26.1 µM	38.7 µM	> 100 µM	34.9 µM	26.2 µM	31.2 µM	45.8 µM	–	36.5 µM
CC(C)(C)CNC(=O)NCn1cc(-c2ccccc2)nn1	> 100 µM	> 100 µM	> 100 µM	> 100 µM	> 100 µM	> 100 µM	> 100 µM	–	> 100 µM	> 100 µM	> 100 µM	> 100 µM	> 100 µM	> 100 µM	> 100 µM	–	> 100 µM	> 100 µM	> 100 µM	> 100 µM
O=C(NNC(=S)Nc1ccc(Br)cc1)c1cc(-c2ccccc2)nc2ccccc12	61.4 µM	42 µM	51.8 µM	42.2 µM	32.5 µM	52.9 µM	46.9 µM	46.5 µM	33.2 µM	59 µM	43.4 µM	30.5 µM	53 µM	> 100 µM	60.9 µM	36.4 µM	> 100 µM	–	40.8 µM	31.3 µM
Cc1ccc(S(=O)(=O)N2c3ccccc3[C@H]3CCC=C[C@H]32)cc1	> 95.4 µM	67.4 µM	–	> 100 µM	27.2 µM	> 73.8 µM	47.7 µM	> 100 µM	> 100 µM	6.35 µM	35.4 µM	> 97.5 µM	24.6 µM	> 100 µM	> 100 µM	34.9 µM	> 100 µM	> 92.6 µM	> 100 µM	34 µM
CCOC(=O)C(=[N+]=[N-])C(=O)CN1C(=O)C2CC(C)=C(C)CC2C1O (stereo not given)	> 100 µM	> 100 µM	> 100 µM	> 100 µM	> 100 µM	> 100 µM	> 100 µM	–	> 100 µM	> 100 µM	–	> 100 µM	> 100 µM	> 100 µM	> 100 µM	> 100 µM	> 100 µM	> 100 µM	> 100 µM	> 100 µM
Cc1c(-c2ccccc2)c(C#N)c2nnn(C3CCCCC3)c(=O)n12	> 100 µM	46.6 µM	> 100 µM	> 100 µM	> 100 µM	–	> 100 µM	> 100 µM	> 100 µM	> 100 µM	80.8 µM	> 100 µM	> 100 µM	> 100 µM	> 100 µM	6.85 µM	> 100 µM	> 100 µM	> 100 µM	> 100 µM
CCOC(=O)/C(N=Nc1ccc(-n2c(C)nc3ccc(Br)cc3c2=O)cc1)=C(/C)O	> 100 µM	> 100 µM	> 100 µM	> 100 µM	> 100 µM	> 100 µM	> 100 µM	–	> 100 µM	–	> 100 µM	31.9 µM	> 100 µM	> 100 µM	> 100 µM	> 100 µM	> 100 µM	> 100 µM	> 100 µM	> 100 µM
CC(=O)Nc1ccc(-c2nc3ccccc3s2)cc1C	> 100 µM	> 100 µM	> 100 µM	> 100 µM	> 100 µM	> 100 µM	> 100 µM	> 100 µM	> 100 µM	–	> 100 µM	> 100 µM	> 100 µM	> 100 µM	> 100 µM	> 100 µM	> 100 µM	> 100 µM	55.6 µM	> 100 µM
NNC1=N/C(=C\c2ccco2)C(=O)N1	> 100 µM	> 100 µM	> 100 µM	> 100 µM	> 100 µM	> 100 µM	> 100 µM	> 100 µM	> 100 µM	> 100 µM	–	> 100 µM	> 100 µM	> 100 µM	> 100 µM	> 100 µM	> 100 µM	> 100 µM	–	> 100 µM
Cc1c(/C=N/NC(=S)Nc2ccccc2)c(=O)n(-c2ccccc2)n1C	> 100 µM	> 100 µM	> 100 µM	> 100 µM	> 100 µM	> 100 µM	> 100 µM	> 100 µM	> 100 µM	–	> 100 µM	> 100 µM	> 100 µM	> 100 µM	> 100 µM	> 100 µM	> 100 µM	> 100 µM	> 100 µM	> 100 µM
CC(C)OP(=O)(OC(C)C)c1ccc2c(c1)OCCOCCOCCOCCO2	> 100 µM	> 100 µM	–	> 100 µM	–	> 100 µM	> 100 µM	–	> 100 µM	> 100 µM	–	> 100 µM	> 100 µM	> 100 µM	> 100 µM	> 100 µM	> 100 µM	> 100 µM	> 100 µM	> 100 µM
CSc1cc(Br)ccc1-n1c(C(=O)c2ccccc2)c(SC)n(-c2ccccc2)c1=O	> 100 µM	> 100 µM	> 100 µM	> 100 µM	> 100 µM	> 100 µM	> 100 µM	> 100 µM	> 100 µM	> 100 µM	> 100 µM	> 100 µM	> 100 µM	> 100 µM	> 100 µM	> 100 µM	> 100 µM	> 100 µM	–	> 100 µM
c1cc2nnc1SCCCSc1ccc(nn1)SCCCSc1ccc(nn1)SCCCS2	> 100 µM	> 100 µM	> 100 µM	> 100 µM	> 100 µM	> 100 µM	> 100 µM	> 100 µM	> 100 µM	> 100 µM	–	> 100 µM	> 100 µM	> 100 µM	> 100 µM	> 100 µM	> 100 µM	–	> 100 µM	> 100 µM
COc1cc(OC)c2c(=O)c(OC)c(-c3ccc4c(c3)OCO4)oc2c1OC	> 100 µM	> 100 µM	> 100 µM	> 100 µM	> 100 µM	> 100 µM	> 100 µM	–	> 100 µM	> 100 µM	90.9 µM	89.8 µM	> 100 µM	> 100 µM	> 100 µM	> 100 µM	> 100 µM	> 100 µM	> 100 µM	> 100 µM
